According to patent US10537535B2, “Histone deacetylase inhibitors” (The Regents of the University of California, priority 2015, dated 2020):

How the values were obtained:
human HDAC2 = molecular target: T1, human HDAC2 (Homo sapiens, UniProt Q92769); experiment: Fluorometric HDAC activity assay, purified human HDAC2; assay type: biochemical; conditions: purified human HDAC2, n=4-5
T1 construct: purchased BPS Bioscience 50062
Description: (§1) In order to directly test whether diacetyl acts as an inhibitor of HDACs, in vitro acetylation assays was performed with purified human HDACs. In this example, β-hydroxybutyrate (a naturally-occurring HDAC inhibitor secreted by the liver, targeting zinc-dependent HDACs) was used for comparison. HDAC activity of class I HDACs (HDAC1, 2, 3 and 8) was measured with the fluorometric HDAC Activity Assay kit: HDAC1 (10011563, Cayman Chemical, Ann Arbor, Mich.), HDAC2, HDAC 3 and HDAC 8 (50062, 50073 and 50068, BPS Bioscience, San Diego, Calif.), according to the manufacturer's instructions.

human HDAC3 = molecular target: T2, human HDAC3 (Homo sapiens, UniProt O15379); experiment: Fluorometric HDAC activity assay, purified human HDAC3; assay type: biochemical; conditions: purified human HDAC3, n=4-5
T2 construct: purchased BPS Bioscience 50073
T2 sequence (O15379 whole entry): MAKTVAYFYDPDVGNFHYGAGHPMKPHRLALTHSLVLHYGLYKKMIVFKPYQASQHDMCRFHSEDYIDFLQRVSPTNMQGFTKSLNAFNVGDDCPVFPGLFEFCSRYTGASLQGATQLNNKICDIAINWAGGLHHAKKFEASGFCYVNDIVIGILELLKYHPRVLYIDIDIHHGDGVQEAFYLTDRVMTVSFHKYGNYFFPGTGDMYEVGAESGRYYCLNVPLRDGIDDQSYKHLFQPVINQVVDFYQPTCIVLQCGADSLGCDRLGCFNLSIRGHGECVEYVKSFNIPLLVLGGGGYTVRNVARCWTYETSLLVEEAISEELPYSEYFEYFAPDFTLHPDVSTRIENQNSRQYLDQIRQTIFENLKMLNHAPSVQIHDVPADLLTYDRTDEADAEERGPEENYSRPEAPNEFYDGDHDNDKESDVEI
T2 sequence (Q9Y618 395-489 partner limits assumed): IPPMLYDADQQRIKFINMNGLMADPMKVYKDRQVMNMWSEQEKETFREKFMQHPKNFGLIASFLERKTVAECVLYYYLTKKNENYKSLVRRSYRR
Description: as §1

human HDAC8 = molecular target: T3, human HDAC8 (Homo sapiens, UniProt Q9BY41); experiment: Fluorometric HDAC activity assay, purified human HDAC8; assay type: biochemical; conditions: purified human HDAC8, n=4-5
T3 construct: purchased BPS Bioscience 50068
T3 sequence (Q9BY41 1-377): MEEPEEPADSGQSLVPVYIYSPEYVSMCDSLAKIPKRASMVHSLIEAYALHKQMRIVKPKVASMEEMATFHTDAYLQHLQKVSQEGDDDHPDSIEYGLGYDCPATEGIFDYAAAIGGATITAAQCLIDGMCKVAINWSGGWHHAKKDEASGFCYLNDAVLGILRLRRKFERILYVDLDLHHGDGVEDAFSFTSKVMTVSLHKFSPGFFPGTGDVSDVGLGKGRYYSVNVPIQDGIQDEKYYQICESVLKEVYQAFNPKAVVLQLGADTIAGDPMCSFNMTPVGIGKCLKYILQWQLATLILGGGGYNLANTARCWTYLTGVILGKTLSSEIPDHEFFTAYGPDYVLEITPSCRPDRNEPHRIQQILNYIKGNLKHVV
Description: as §1

Gr63a = experiment: Whole mount RNA in situ of adult Drosophila antenna Gr63a; assay type: in vivo; conditions: 5 days; odor 1 1% on filter paper, sodium butyrate 10 mM fed; vs untreated or mock
Description: For five days, Drosophila were exposed to 1% diacetyl (odor 1) on filter paper; fed known HDAC inhibitor sodium butyrate (Na-but; 10 mM); or fed known HDAC inhibitor valproic acid (10 mM).

pGMR-HTTQ120 flies = experiment: Huntington's model Drosophila (pGMR-HTTQ120), rhabdomere count by pseudopupil analysis; assay type: in vivo
Description: To investigate the effect of diacetyl on neurodegeneration, Huntington model Drosophila flies (GMR-HTTQ120; expressing human huntington HTTQ120 protein from a GMR promoter) were exposed to odor 1 (diacetyl) at 1% concentration from filter paper for five days as a volatile scent. Following exposure, the omatidia in the eyes of the flies were visualized. […] The number of rhabdomeres present in the omatidia were counted (wildtype flies have 7 rhabdomeres in each omatidia).
When the transgenic flies expressing two copies of the human Huntington with poly-Q repeats (HTTQ120) under control of the eye-specific GMR promoter were raised at 18° C., the number of rhabdomeres in each ommatidium was similar to that of control flies (7) immediately post-eclosion (day 1, FIGS. 8A-8C). […] The mean number of rhabdomeres was reduced from 7 to ˜1 by day 10.
Flies were exposed to diacetyl in a cylindrical container (112 mm diameter×151 mm height). Each container was tightly closed but had 2 holes, one of which connected to an air suction port, and the other to a vial containing either of 5 mL paraffin oil or 5 mL 1% diacetyl in paraffin oil. A gentle suction was applied to pull the headspace from the odor or paraffin oil vials into the cylindrical structure (FIG. 11). pGMR-HTTQ120 flies were maintained at 18° C. Adult flies aged 1 d were transferred to fly vials containing fresh medium, and put into the odor-filled container at room temperature. Paraffin oil and 1% diacetyl solution were prepared and replaced every day. At the end of the fifth day of exposure, half of the flies were collected and subjected to pseudopupil analysis. The remaining flies were transferred to fresh medium and exposed to the odors for an additional 5 days. All treatments and experiments were performed at room temperature.
Pseudopupil Analysis was performed according to a protocol described previously (Song et al., 2013). Flies were decapitated and mounted on a microscope slide by dipping in a drop of nail polish. The arrangement of rhabdomeres in the ommatidia of the compound eyes were analyzed with Axio Imager M2 (Carl Zeiss, Oberkochen, Germany) using a 63× objective, and photographed with Axiocam 506 mono (Carl Zeiss). Six hundred ommatidia from 30 eyes of 15 flies were scored for each condition.

T1 sequence (Q92769 whole entry): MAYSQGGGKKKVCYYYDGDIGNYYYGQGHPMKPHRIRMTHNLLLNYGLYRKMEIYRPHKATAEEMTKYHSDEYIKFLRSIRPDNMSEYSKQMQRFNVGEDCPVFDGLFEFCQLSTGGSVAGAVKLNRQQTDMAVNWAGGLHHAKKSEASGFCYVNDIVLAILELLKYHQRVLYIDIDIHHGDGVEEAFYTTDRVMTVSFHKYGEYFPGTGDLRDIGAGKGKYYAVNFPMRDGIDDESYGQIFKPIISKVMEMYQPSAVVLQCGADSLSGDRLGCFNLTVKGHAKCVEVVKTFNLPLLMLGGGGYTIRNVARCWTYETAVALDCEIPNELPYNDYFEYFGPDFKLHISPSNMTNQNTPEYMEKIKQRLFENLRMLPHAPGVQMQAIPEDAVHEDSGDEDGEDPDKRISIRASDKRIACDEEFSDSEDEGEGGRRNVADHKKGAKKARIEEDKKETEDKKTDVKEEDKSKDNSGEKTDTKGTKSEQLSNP

With `CC(=O)C(C)=O` [diacetyl, 2,3-Butanedione] the IC50 (human HDAC2) was 11.2 mM, the IC50 (human HDAC3) was 7.72 mM and the IC50 (human HDAC8) was 11.4 mM. For the same compound, the “Gr63a expression in antenna (RNA in situ)” value (Gr63a) was “over-expression”, the “rhabdomeres left in the majority of ommatidia” value (pGMR-HTTQ120 flies; 1% headspace, after 10 days, solvent controls ~1-2) was 2-3 rhabdomeres and the “rhabdomeres retained in the majority of ommatidia” value (pGMR-HTTQ120 flies; 1% headspace, day 5) was 6-7 rhabdomeres. The “rhabdomeres in omatidia vs not exposed flies” value (pGMR-HTTQ120 flies; GMR-HTTQ120 flies, 1% from filter paper, five days, FIG. 2A) was “greater rhabdomeres” and the “inhibition of rhabdomere loss” value (pGMR-HTTQ120 flies; volatile headspace of 1% diacetyl in paraffin oil, after eclosion, 25° C.) was 50%.
